Three compounds from patent publication US8110570B2, “Modulators of acetyl-coenzyme A carboxylase and methods of use thereof” (Cropsolution, Inc., priority 2008, dated 2012) can be followed below.

In assay [1] the test system is hepatic fatty acid synthesis. The experiment in a line: In vivo inhibition of rat hepatic fatty acid synthesis. To be noted: oral. The method, then: In vivo measurement of fatty acid synthesis inhibition in mammals. Incorporation of [2-^14C]acetate into saponifiable lipids in the livers of mammals (e.g. Sprague Dawley rats, Charles River Laboratories, Boston, Mass. or Harlan Laboratories, Indianapolis, Ind.) can be measured as described previously (Harwood Jr. H. J. et al., J Biol Chem, 39: 37099-37111 (2003)). For example, animals given food and water ad libitum are treated orally at volume of 1.0 ml/200 g of body weight with either an aqueous solution containing 0.5% methyl cellulose (vehicle) or an aqueous solution containing 0.5% methyl cellulose containing test compound. One hour after compound administration, animals receive an intraperitoneal injection of [2-^14C]acetate (0.02 mL, 1 mCi/mL; 50 mCi/mmol. One hour after radiolabel administration, animals are sacrificed by CO2 asphyxiation, and two liver pieces (about 0.75 g each) are removed and saponified at 70° C. for 120 min in 2.5 M NaOH (1.5 mL). After saponification, absolute EtOH (2.5 mL) is added to each sample and the solutions are mixed and allowed to stand overnight. Petroleum ether (4.8 mL) is then added to each sample, and after vigorous shaking (2 min) the mixtures are centrifuged at 1000×g (5 min). The petroleum ether layer containing the nonsaponifiable lipids is removed and discarded. The remaining aqueous layer is acidified (pH<2) by addition of 12 M HCl (0.6 mL) and extracted two times with petroleum ether (4.8 mL). The pooled organic fractions are transferred to liquid scintillation vials, dried under nitrogen, dissolved in Aquasol scintillation fluid (7 ml), and radioactivity is quantified by liquid scintillation counting. Inhibition of fatty acid synthesis by the test compound is expressed as a relative percent inhibition of measured incorporation of [2-^14C]acetate into saponifiable lipids during the interval between [2-^14C]acetate injection and CO2 asphyxiation in animals receiving test compound, compared to control animals receiving only the vehicle.
Compounds of the present invention, and salts thereof, were evaluated for inhibition of fatty acid synthesis as described above.

Another assay addresses T1, hACC2 (Homo sapiens, UniProt O00763).
T1 construct: delete amino acids 1-148 and add Met-Gly in front of Lys149 in the final product; His tag (C); made in house; host or cells: baculovirus, Sf9 insect cells
The assay is described as follows: [14C]bicarbonate incorporation assay, overall ACC activity. Type of assay: biochemical. To be noted: recombinant hACC2, overall ACC activity. The method, boiled down:
(§1)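 His-tagged full-length hACC1 or hACC2 (residues 1-148 deleted, Met-Gly added), expressed in sf9 cells with biotin and purified, were assayed by [14C]bicarbonate incorporation into acetyl-CoA. Reactions at pH 7.4 with 2 mM acetyl-CoA, 12 mM NaHCO3 and 1% DMSO were started with 2 mM ATP and run 10 min at 37° C. Acid-stable label was counted and IC50 obtained from dose-response fits.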

The target of the next assay is T2, hACC1 (Homo sapiens, UniProt Q13085).
T2 construct: PCR primers were designed for full-length hACC1 and hACC2 using GenBank submissions AY237919 and AJ575592, respectively; His tag (C); made in house; host or cells: baculovirus, Sf9 insect cells
The description is as above. To be noted: recombinant hACC1, overall ACC activity. Format: biochemical. The method in brief: as §1

T1 sequence (O00763 149-2458 limits assumed): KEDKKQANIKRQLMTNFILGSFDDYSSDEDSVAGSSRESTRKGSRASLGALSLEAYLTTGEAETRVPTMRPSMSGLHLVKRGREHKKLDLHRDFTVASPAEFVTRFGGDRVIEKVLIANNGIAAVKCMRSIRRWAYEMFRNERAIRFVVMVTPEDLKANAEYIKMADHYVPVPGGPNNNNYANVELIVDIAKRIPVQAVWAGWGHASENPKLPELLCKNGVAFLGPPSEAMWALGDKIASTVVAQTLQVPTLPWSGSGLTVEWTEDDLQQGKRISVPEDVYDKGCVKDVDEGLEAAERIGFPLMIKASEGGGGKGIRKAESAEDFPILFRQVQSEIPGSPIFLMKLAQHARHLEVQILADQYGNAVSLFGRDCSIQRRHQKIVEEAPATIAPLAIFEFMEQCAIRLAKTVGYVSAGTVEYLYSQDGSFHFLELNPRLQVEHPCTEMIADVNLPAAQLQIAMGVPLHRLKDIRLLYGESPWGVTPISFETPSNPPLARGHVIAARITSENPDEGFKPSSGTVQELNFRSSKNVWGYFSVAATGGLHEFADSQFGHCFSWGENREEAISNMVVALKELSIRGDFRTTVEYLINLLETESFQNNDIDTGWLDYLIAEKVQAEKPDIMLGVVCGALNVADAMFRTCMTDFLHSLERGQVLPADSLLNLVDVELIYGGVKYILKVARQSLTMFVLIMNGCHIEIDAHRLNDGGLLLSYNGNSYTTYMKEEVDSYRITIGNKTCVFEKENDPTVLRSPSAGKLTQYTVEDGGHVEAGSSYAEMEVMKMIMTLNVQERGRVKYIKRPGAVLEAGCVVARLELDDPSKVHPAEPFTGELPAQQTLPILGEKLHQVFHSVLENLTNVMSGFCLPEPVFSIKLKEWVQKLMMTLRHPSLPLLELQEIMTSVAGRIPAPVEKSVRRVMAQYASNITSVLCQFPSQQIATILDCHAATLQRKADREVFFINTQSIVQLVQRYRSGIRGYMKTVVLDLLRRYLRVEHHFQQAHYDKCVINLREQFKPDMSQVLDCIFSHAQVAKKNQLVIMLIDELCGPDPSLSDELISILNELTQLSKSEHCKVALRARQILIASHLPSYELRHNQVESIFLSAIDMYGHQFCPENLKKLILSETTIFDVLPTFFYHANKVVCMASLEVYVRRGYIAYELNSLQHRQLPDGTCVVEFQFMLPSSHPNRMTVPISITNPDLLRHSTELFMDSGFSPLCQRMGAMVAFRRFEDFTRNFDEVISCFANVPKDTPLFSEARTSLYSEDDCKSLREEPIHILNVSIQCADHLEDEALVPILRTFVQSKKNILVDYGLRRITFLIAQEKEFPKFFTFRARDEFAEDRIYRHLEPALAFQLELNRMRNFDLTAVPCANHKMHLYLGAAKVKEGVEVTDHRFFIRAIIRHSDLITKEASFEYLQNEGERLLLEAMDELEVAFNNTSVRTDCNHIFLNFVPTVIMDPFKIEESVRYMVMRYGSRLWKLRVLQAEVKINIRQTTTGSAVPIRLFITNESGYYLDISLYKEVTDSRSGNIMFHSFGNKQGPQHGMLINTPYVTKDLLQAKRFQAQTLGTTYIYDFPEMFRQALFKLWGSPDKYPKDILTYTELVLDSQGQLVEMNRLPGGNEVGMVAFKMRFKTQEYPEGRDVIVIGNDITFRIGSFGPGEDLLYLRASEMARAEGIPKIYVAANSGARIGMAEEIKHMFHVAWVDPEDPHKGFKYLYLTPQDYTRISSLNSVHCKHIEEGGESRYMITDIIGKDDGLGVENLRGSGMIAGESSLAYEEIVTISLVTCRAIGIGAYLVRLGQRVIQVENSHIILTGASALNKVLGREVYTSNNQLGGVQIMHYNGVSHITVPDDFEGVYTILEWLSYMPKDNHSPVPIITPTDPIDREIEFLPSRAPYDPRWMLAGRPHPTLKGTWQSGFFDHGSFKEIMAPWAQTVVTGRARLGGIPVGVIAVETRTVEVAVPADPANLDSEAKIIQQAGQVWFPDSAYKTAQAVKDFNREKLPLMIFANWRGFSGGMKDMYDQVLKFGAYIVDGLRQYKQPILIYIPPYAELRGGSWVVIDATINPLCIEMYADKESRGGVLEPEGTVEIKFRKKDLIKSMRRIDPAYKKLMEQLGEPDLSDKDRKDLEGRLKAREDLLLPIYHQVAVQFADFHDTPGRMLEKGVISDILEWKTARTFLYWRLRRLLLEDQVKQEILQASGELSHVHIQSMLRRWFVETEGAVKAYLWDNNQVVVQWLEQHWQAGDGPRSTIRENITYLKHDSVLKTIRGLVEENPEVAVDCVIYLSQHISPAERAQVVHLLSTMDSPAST

For the compound `COc1cc(C(=O)N2CCC3(CC2)NC(=O)c2cc(OC(C)C)ccc2O3)nc2c(OC)cccc12` [Compound 169], in assay [1], the “Percent Inhibition at 10 mg/Kg” value is recorded as 30% and the “Percent Inhibition at 30 mg/Kg” value is reported as 60%. Moreover, the 50% inhibitory concentration (IC50) – broadly, the concentration that gives 50% inhibition – at hACC2 is 7.4 nM. At hACC1, the 50% inhibitory concentration (IC50) stood at 7.5 nM.

On to `COc1ccc2c(c1)C(=O)NC1(CCN(C(=O)c3cc(OC)c4cccc(OC)c4n3)CC1)O2` [Compound 150], for which the “Percent Inhibition at 10 mg/Kg” value in assay [1] is given as 20%. The “Percent Inhibition at 30 mg/Kg” value in assay [1] was determined as 54%. The IC50 at hACC2 was determined as 23 nM; at hACC1, 26 nM.

Regarding `COc1cc(C(=O)N2CCC3(CC2)NC(=O)c2cc(Br)ccc2O3)nc2c(OC)cccc12` [Compound 2, 6-Bromo-1′-[(4,8-dimethoxyquinoline-2-yl)carbonyl]spiro[2H-1,3-benzoxazine-2,4′-piperidine]-4(3H)-one], the results for the 50% inhibitory concentration (IC50) on hACC2 and on hACC1 were 51 nM and 88 nM, respectively.
